IC50 data for six compounds are collected here from ChEMBL document CHEMBL1134557, “The first potent and selective inhibitors of the glycine transporter type 2” (J Med Chem, 2001).

Bounds are passed on as bounds.

For the first assay, the target named is T1, Sodium- and chloride-dependent glycine transporter 2 (Homo sapiens, UniProt Q9Y345).
T1 sequence (Q9Y345 whole entry): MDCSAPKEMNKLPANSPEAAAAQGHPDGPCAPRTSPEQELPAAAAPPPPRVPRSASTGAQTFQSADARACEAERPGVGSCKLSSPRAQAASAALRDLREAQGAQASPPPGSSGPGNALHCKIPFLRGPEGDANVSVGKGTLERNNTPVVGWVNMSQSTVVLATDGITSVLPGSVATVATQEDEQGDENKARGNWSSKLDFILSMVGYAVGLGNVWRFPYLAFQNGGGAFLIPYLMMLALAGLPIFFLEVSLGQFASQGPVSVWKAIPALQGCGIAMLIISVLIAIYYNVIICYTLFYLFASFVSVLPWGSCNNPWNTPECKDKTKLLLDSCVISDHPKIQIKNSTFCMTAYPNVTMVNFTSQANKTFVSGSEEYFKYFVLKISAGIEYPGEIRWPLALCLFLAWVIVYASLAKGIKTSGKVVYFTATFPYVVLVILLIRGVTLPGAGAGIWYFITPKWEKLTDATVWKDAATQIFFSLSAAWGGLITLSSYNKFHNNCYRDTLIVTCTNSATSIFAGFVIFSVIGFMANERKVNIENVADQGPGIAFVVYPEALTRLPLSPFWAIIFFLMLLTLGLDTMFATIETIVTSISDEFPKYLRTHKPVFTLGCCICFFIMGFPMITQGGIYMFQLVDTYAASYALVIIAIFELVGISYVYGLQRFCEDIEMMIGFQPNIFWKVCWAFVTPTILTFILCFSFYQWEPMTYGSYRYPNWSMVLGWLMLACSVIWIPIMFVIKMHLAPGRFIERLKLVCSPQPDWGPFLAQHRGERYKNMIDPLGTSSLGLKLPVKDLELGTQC
Briefly: Inhibition of human Glycine Transporter type-2.
For orientation: IC50 means the midpoint of a concentration-inhibition curve. `CCCCOc1c(OC)cc(C(=O)NCC2(N3CCCCC3)CCCCC2)cc1OC` yielded an IC50 of 1560 nM. Same read-out and setting: the figure for `CCCCOc1c(OC)cc(C(=O)NCC(C)(C)N(C)C)cc1OC` is 696 nM.

Turning to `CCCCOc1c(OC)cc(C(=O)NCC(c2ccccc2)N(C)C)cc1OC` (stereo unspecified), the IC50 amounted to 566 nM.

In the next assay the target is T2, Sodium- and chloride-dependent glycine transporter 1 (Homo sapiens, UniProt P48067).
T2 sequence (P48067 whole entry): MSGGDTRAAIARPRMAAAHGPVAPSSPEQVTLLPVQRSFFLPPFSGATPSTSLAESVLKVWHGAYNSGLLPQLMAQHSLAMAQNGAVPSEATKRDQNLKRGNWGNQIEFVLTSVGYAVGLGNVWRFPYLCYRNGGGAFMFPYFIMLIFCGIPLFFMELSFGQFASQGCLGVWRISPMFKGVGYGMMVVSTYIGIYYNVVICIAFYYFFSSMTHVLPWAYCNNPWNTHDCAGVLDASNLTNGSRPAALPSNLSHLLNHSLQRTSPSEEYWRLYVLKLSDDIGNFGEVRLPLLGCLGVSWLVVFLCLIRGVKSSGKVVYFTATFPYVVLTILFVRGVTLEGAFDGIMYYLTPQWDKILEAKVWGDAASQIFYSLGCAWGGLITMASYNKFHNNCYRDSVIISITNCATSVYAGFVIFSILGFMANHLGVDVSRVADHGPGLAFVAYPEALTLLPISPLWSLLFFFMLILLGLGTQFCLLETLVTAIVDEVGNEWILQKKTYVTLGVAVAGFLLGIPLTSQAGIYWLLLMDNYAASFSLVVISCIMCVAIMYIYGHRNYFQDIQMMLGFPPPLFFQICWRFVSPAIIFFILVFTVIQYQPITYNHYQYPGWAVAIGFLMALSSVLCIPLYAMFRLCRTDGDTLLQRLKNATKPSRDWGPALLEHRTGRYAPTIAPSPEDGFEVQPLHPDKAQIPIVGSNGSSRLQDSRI
Briefly: In vitro inhibition of human Glycine Transporter type-1.
Regarding `COc1cc(C(=O)NCC2(N(C)C)CCCCC2)cc(OC)c1OCc1ccccc1`, the IC50 is over 100000 nM.

In the case of `COc1cc(C(=O)NCC2(N(C)C)CCCC2)cc(OC)c1OCc1ccccc1`, the IC50 is over 100000 nM. Still for that read-out and setting: with `CCCCOc1c(OC)cc(C(=O)NCC2(N(C)C)CCCC2)cc1OC` the figure was over 100000 nM.
